# Patent EP0312245A2, “Polycyclic compounds and pharmaceutical compositions thereof” (NORISTAN HOLDINGS LIMITED, priority 1987, dated 1989)
# Like-named read-outs stand apart in the source and are kept apart here.
# Key:
# [1] = system: guinea-pig papillary muscle; assay: Electrophysiological test: action potential of guinea-pig papillary muscle (microelectrode technique); conditions: for minimal effective concentration: Cavia porcellus; for TIME 1 (Shortest time needed to attain suppression) / TIME 2 (Shortest time needed for reversal of effect by washing out of compound): at the listed bath concentration; for DEGREE OF SUPPRESSION: suppression of action potential at the listed bath concentration
# Protocol: Electrophysiological studies were conducted on guinea-pig papillary muscle.
# Using a microelectrode technique, action potentials were measured from guinea-pig papillary muscles. Action potentials were evoked by electrical stimulation (platinum electrode, Grass S88 stimulator, 1 Hz stimulation frequency; voltage, 10% above threshold). […] The preparations were electrically driven (pacing intervals 1 s, duration 2-5 ms). Slow (Ca2+ mediated) action potentials were evoked in a depolarizing solution (22 mmol/l K and 5 mmol/I Ca^2+) at 0,35 Hz stimulation frequency in order to ensure complete removal of inactivation of slow inward current.
# [2] = system: isolated rabbit ear preparation; assay: Rabbit ear perfusion test (adrenaline-induced tone, perfusion pressure)
# Protocol: Female New Zealand White rabbits (approximately 4kg) were anaesthetised with Sagatal ® (0.5ml/kg).
# The central ear artery was cannulated using a 20 G catheter and the ear cut off at its base. Heparinised (5ml, 200 IU;ml) Krebs bicarbonate solution was perfused through the ear to expel the blood. The ear was placed in a warming jacket at 37°C and attached via the arterial catheter to the perfusion pump. Perfusion of the ear with aerated (95% 025% C02)Krebs bicarbonate solution at 37° C was commenced at a rate of 6.5ml/min using a Watson Marlow peristaltic pump. The perfusion pressure was monitored continuously using a pressure transducer (Type 4-327-1221, Consoliated Electrodynamics) coupled to a Devices Recorder.
# Following an equilibration period of 15 minutes, increased tone was induced in the preparation by addition of adrenaline (1µg/ml) to the perfusion fluid.
# After a stable tone was observed, various concentrations of test compounds were injected into the perfusion fluid and examined for their effect on the perfusion pressure. The effect of vehicle (0.2ml, 50% Krebs 50% ethanol) was also tested on the ear preparation.
# cardiac myocytes = assay: Calcium current blockade in cardiac myocytes (voltage clamp); type: cell-based, guinea-pig; conditions: voltage clamp experiments of cardiac myocytes
# Protocol: Ventricular myocytes were isolated from guinea-pig hearts by enzymatic dispersion of the cells using a method related to that employed by Mitra and Morad. After 5 minutes of perfusion at 37 °C on a Langendorff apparatus, the Tyrode solution was changed for a Ca-free solution for 5 minutes, after which the heart was perfused with a 40ml Ca-free solution containing 12mg collagenase (Type II, Sigma) and 10mg protease (Type XIV; Sigma). Perfusion with the soluticn containing enzymes was usually stopped within 5 minutes or as soon as dark areas appeared on the ventricles. The heart was then perfused with a Tyrode solution containing 0.8mM Ca for a few minutes, after which the ventricles were cut in small pieces and the isolated cells were shaken free in a 50ml beaker containing Tyrode solution.
# Tyrode solution containing 5.4 mM KCI; 1.8 mM CaC12; 0.5 mM MgClz; 137.6 mM NaCI; 5 mM glucose and 11.6 mM HEPES. The pH was adjusted to 7.4 with NaOH. […] No change in the pH of the Tyrode solution could be measured after this addition. […]
# Suction pipettes with resistance values between 2 and 5 MΩ were drawn from borosilicate glass (Jencons, H15/10) and heat polished. […] The results were recorded on magnetic tape or floppy disk. […] Calcium currents were measured as the difference between the maximum slow inward current and the current recorded after 400 ms.
# [3] = system: spontaneously hypertensive rats (SHR ); assay: Antihypertensive test: mean arterial pressure in spontaneously hypertensive rats; type: in vivo, rat; conditions: statement in words
# Protocol: The effect of Compound 3 on the mean arterial pressure was determined on spontaneously hypertensive rats (SHR ) by means of direct pressure transducing. Groups of 6 male rats of mass 210-300g were used. The average of ten pressure determinations was used. Normotensive (BD-9) rats were used as animal controls, while normal saline solution (containing some traces of polyethylene glycol and ethanol to aid in the solution of the test compounds) was used as solvent and as solvent control.
# After verifying the mass of the animal, it was placed under general anaesthesia by administering 60mgikg pentobarbitone (Sagatal@) intraperitonially. The tracheal tube and carotid artery were both exposed by dissection. An intranule was introduced into the trachea as aid ventilation. The carolid artery was canalated and coupled to a pressure sensor. The sysolic, diastolic and mean arterial pressure were monitored via a Spacelab 514 patient monitor and registered on a Vitatek 551 plotter. During the experiment the exposed tissue of the rat was covered with guaze and kept damp with normal saline.
# The drugs and solvent controls were administered intravenously into the dorsal penile vein after stabilization of the blood pressure (BP) had occurred. After drug administration, the BP was recorded every 5 minutes for a period of 30 min.
smiles,measurement,setting,value
"CCCCCCCCNC12OC3C4C5CC(C6C5C3C61)C42 (racemic) [Compound 3, 8-η-Octylamino-8,11-oxopentacyclo[5.4.0 .0^2,6.0^3,10.0^5,9]undecane]",minimal effective concentration,"[1]; read-out: BATH CONCENTRATION (Lowest concentration of the compound to induce suppression of action potential), Table 3, guinea-pig papillary muscle",62.5 µM
same,minimal effective concentration,"[1]; read-out: BATH CONCENTRATION (Lowest concentration of the compound to induce suppression of action potential), Table 4, racemates and optical isomers",62.5 µM
same,TIME 1 (Shortest time needed to attain suppression),[1]; Table 3,6 min
same,TIME 2 (Shortest time needed for reversal of effect by washing out of compound),[1]; Table 3,6 min
same,DEGREE OF SUPPRESSION,[1]; Table 3,complete
same,TIME 1 (Shortest time needed to attain suppression),[1]; Table 4,6 min
same,TIME 2 (Shortest time needed for reversal of effect by washing out of compound),[1]; Table 4,6 min
same,DEGREE OF SUPPRESSION,[1]; Table 4,complete
same,inhibition at 0.01 mg,"[2]; Oryctolagus cuniculus, Table 5, dose 10 µg, read-out: Mean % change in perfusion pressure",8.5%
same,inhibition at 0.0316 mg,"[2]; Oryctolagus cuniculus, Table 5, dose 31.6 µg, read-out: Mean % change in perfusion pressure",11.5%
same,inhibition at 0.1 mg,"[2]; Oryctolagus cuniculus, Table 5, dose 100 µg, read-out: Mean % change in perfusion pressure",16.5%
same,inhibition at 0.316 mg,"[2]; Oryctolagus cuniculus, Table 5, dose 316 µg, read-out: Mean % change in perfusion pressure",26%
same,inhibition at 1 mg,"[2]; Oryctolagus cuniculus, Table 5, dose 1000 µg, read-out: Mean % change in perfusion pressure",41%
same,inhibition at 0.01 mg,"[2]; Oryctolagus cuniculus, Table 6, dose 10 μg, read-out: Corrected mean % change in perfusion pressurre",5.5%
same,inhibition at 0.0316 mg,"[2]; Oryctolagus cuniculus, Table 6, dose 31.6 μg, read-out: Corrected mean % change in perfusion pressurre",5.5%
same,inhibition at 0.1 mg,"[2]; Oryctolagus cuniculus, Table 6, dose 100 μg, read-out: Corrected mean % change in perfusion pressurre",11.5%
same,inhibition at 0.316 mg,"[2]; Oryctolagus cuniculus, Table 6, dose 316 μg, read-out: Corrected mean % change in perfusion pressurre",20.5%
same,inhibition at 1 mg,"[2]; Oryctolagus cuniculus, Table 6, dose 1000 μg, read-out: Corrected mean % change in perfusion pressurre",34.5%
same,inhibition at 0.0316 mg,"[2]; Oryctolagus cuniculus, Table 7, dose 31.6 μg, read-out: Mean % change in perfusion pressure",9.4%
same,inhibition at 0.1 mg,"[2]; Oryctolagus cuniculus, Table 7, dose 100 μg, read-out: Mean % change in perfusion pressure",17.3%
same,inhibition at 0.316 mg,"[2]; Oryctolagus cuniculus, Table 7, dose 316 μg, read-out: Mean % change in perfusion pressure",24.7%
same,inhibition at 1 mg,"[2]; Oryctolagus cuniculus, Table 7, dose 1000 μg, read-out: Mean % change in perfusion pressure",28.9%
same,inhibition at 3.16 mg,"[2]; Oryctolagus cuniculus, Table 7, dose 3160 μg, read-out: Mean % change in perfusion pressure",27.6%
same,Mean time taken to return to pre-dose volume,"[2]; Table 5, dose 31.6 µg",1.75 min
same,Mean time taken to return to pre-dose volume,"[2]; Table 5, dose 100 µg",4.25 min
same,Mean time taken to return to pre-dose volume,"[2]; Table 5, dose 316 µg",5.5 min
same,Mean time taken to return to pre-dose volume,"[2]; Table 5, dose 1000 µg",8.75 min
same,Mean time to return to predose value,"[2]; Table 6, dose 100 μg",4.25 min
same,Mean time to return to predose value,"[2]; Table 6, dose 316 μg",7.0 min
same,Mean time to return to predose value,"[2]; Table 6, dose 1000 μg",10.5 min
same,Mean time taken to return to predose volume,"[2]; Table 7, dose 31.6 μg",6.3 min
same,Mean time taken to return to predose volume,"[2]; Table 7, dose 100 μg",6.3 min
same,Mean time taken to return to predose volume,"[2]; Table 7, dose 316 μg",8.5 min
same,Mean time taken to return to predose volume,"[2]; Table 7, dose 1000 μg",19.3 min
same,Mean time taken to return to predose volume,"[2]; Table 7, dose 3160 μg",15.0 min
same,block of the calcium current,cardiac myocytes,pronounced frequency dependent block
same,Antihypertensive activity,[3],Antihypertensive activity has also been obtained
